{
  "source": "patent US20130067618A1",
  "about": "“METHODS AND COMPOSITIONS FOR WEED CONTROL” (priority 2011, published 2013)",
  "key": {"[1]": {"tested_on": "Amaranthus palmeri plants (Palmer amaranth A3)", "assay": "Tiling test of pooled trigger molecules to ALS large subunit gene, followed by Staple; visual injury", "type": "in vivo", "experimental": "Approximately four-week old (3-4 inches tall) greenhouse grown Amaranthus palmeri plants (Palmer amaranth A3) were used in these assays. The plants were spray treated in a greenhouse with the ALStile composition, each composition having six trigger oligonucleotides (Table 3) and a formulation comprising 1 percent Silwet L-77 solution, 2 percent ammonium sulfate and 20 mM sodium phosphate and the concentration of each oligonucleotide was approximately 4 nmol. Spray solutions were prepared the same day as spraying and applied using a track sprayer with a FLATfan nozzle 9501E at 165 psi (pounds/square inch) at a rate of 93 g/ha (grams/hectare). The dsDNA ALStile pool oligonucleotide composition was applied and followed 24 hours later by the herbicide treatment, Staple® (2-Chloro-6-{(4,6-dimethoxy-2-pyrimidinyl)thio}benzoic acid sodium salt, pyrithiobac sodium 85 percent, Dupont, Wilmington, Del.) at 108 g/ha (grams per hectare), five replications per treatment and the data is presented as a visual score of percentage injury determined fourteen days after herbicide application."}, "[2]": {"tested_on": "ALS inhibitor resistant Palmer amaranth plants (A3, ALS inhibitor herbicide biotype)", "assay": "ALS_pro_S1 trigger followed by Staple or Classic herbicide on ALS inhibitor resistant plants", "type": "in vivo, Amaranthus palmeri", "settings": "dsDNA trigger, FIG. 2", "experimental": "Thus, ssDNA ALS2 oligonucleotide treatment followed by Staple® at 1 h and 24 h caused 50 percent and 60 percent growth reduction, relative to the untreated control, while Staple® alone at 27 (1 h and 24 h) and 108 (24 h) g ai/ha caused 35 percent, 30 percent, and 40 percent growth reduction, respectively. […] ALS_pro 51 dsDNA trigger molecule was applied to ALS inhibitor resistant Palmer amaranth plants (A3, ALS inhibitor herbicide biotype) followed by ALS inhibitor herbicides 1× Staple® at 108 g ai/ha or 2× Classic® (Chlorimuron Ethyl 25DF, Dupont, Willmington, Del., 2× rate is 70 g ai/ha) at +COC (crop oil concentrate) 24 hr after trigger application."}, "[3]": {"tested_on": "Amaranthus palmeri plants (glyphosate-resistant Palmer amaranth, \"R-22\")", "assay": "Topical ssDNA ALS2 promoter oligonucleotide pool followed by Staple herbicide; plant height", "type": "in vivo", "settings": "testing repeated with individual oligonucleotides", "experimental": "In this example, growing Amaranthus palmeri plants were treated with a topically applied composition for inducing modulation of a target gene in a plant including (a) an agent for conditioning of a plant to transfer of the polynucleotides and (b) polynucleotides including at least one ssDNA polynucleotide strand including at least one segment of 18-21 contiguous nucleotides of the target gene in sense (S) orientation. […]\nApproximately four-week old greenhouse grown Amaranthus palmeri plants (glyphosate-resistant Palmer amaranth, “R-22”) were used in this assays. […] The ssDNA ALS2 oligonucleotide composition was applied and followed 24 hours later by the herbicide treatment, Staple® (2-Chloro-6-{(4,6-dimethoxy-2-pyrimidinyl)thio}benzoic acid sodium salt, pyrithiobac sodium 85 percent, Dupont, Wilmington, Del.) at ¼×(27 g ai/ha (grams active ingredient per hectare) rate for the ssDNA ALS2 oligonucleotide treated plants and 1× rate (108 g ai/ha) for the untreated plants, five replications per treatment and the data is presented as percentage height of the untreated control. Plant height is determined at seven days after herbicide treatment."}, "[4]": {"settings": "trigger pool (about 4 nmol each) or formulation, Staple @ 108 g/ha 24 h later, 14 days after herbicide, A3"}},
  "data": [
    {"substance": "ALSpro_S1: trigger TCTTCTCCGACTCTCACAA, SEQ ID NO:4202; ssDNA in Table 2, dsDNA in b81, dsRNA in Table 3 (chemistry not fully specified; listed as Amaranthus palmeri)", "values": [
      {"measurement": "herbicide enhancing activity relative to the formulation control", "setting": "[1]; A3 biotype, Staple @ 108 g/ha", "result": "herbicide enhancing activity"},
      {"measurement": "visual score of percentage injury, avg", "setting": "[1]; average of five replications, trigger pool or formulation, Staple @ 108 g/ha 24 h later, 14 days after herbicide, A3", "result": 100, "unit": "%"},
      {"measurement": "visual score of percentage injury, Rep1", "setting": "[1]; [4]", "result": 100, "unit": "%"},
      {"measurement": "visual score of percentage injury, Rep2", "setting": "[1]; [4]", "result": 100, "unit": "%"},
      {"measurement": "visual score of percentage injury, Rep3", "setting": "[1]; [4]", "result": 100, "unit": "%"},
      {"measurement": "visual score of percentage injury, Rep4", "setting": "[1]; [4]", "result": 100, "unit": "%"},
      {"measurement": "visual score of percentage injury, Rep5", "setting": "[1]; [4]", "result": 100, "unit": "%"},
      {"measurement": "improvement of herbicide activity on ALS inhibitor resistant plants", "setting": "[2]; then 1x Staple at 108 g ai/ha 24 hr after trigger", "result": "substantially improved the activity"},
      {"measurement": "improvement of herbicide activity on ALS inhibitor resistant plants", "setting": "[2]; then 2x Classic (70 g ai/ha) + COC 24 hr after trigger", "result": "substantially improved the activity"},
      {"measurement": "ALS inhibitor herbicide enhancing activity of the individual trigger molecule", "setting": "[3]", "result": "effective trigger molecule"}
    ]}
  ]
}
